Assay results published in US9427409B2, “Composition and method for aiding sleep” (priority 2014, dated 2016).
Values joined by “and” are separate entries in the source; they are usually repeats but may differ in a detail not shown here. Equal values may be shown once.

Test: In vitro pH-dependent release of each active agent from three-stage release capsules
Type: physicochemical
Conditions: individual capsules (Cap# 1-6)
Experimental: The capsules were designed to release the three drugs in a staged sequence controlled via pH-dependent coatings: uncoated diphenhydramine HCl for immediate release, coated zolpidem for release about 2 hours after administration, and coated lorazepam for release about 4 hours after administration.
Each capsule contained the following agents: (1) 50 mg of uncoated diphenhydramine HCl; (2) 5 mg of zolpidem tartrate in multiparticulate form coated with […]® L30 D-55, which dissolves at above pH 5.5 (with half-maximal drug release at pH 5.8 and maximal release at pH 6.3); and (3) 0.5 mg of lorazepam in multiparticulate form coated with […]® L/S 12.5 (1:1), which dissolves at above pH 6.5 (with half-maximal drug release at pH 7.2). The coatings were selected to achieve release of zolpidem tartrate with gastric emptying and release of lorazepam when the drug reaches the intestines.
Six capsules were individually tested in beakers for pH-dependent release of each active agent.

[1] = At 30 min in pH 2 (At time zero pH 2)
[2] = At 150 min in pH 6.4 (At 120 min changed to pH 6.4)
[3] = At 270 min in pH 7.2 (At 240 min changed to pH 7.2)

Structure (SMILES) | % Release [1] | % Release (At 30 min in pH 2 (At time zero pH 2), listed as lorazepam) | % Release [2] | % Release (At 150 min in pH 6.4 (At 120 min changed to pH 6.4), listed as lorazepam) | % Release [3] | % Release (At 270 min in pH 7.2 (At 240 min changed to pH 7.2), listed as lorazepam) | % Release (At 30 min in pH 2 (At time zero pH 2), listed as diphenhydramine HCl)
O=C1Nc2ccc(Cl)cc2C(c2ccccc2Cl)=NC1O (racemic) [Lora, (RS)-7-Chloro-5-(2-chlorophenyl)-3-hydroxy-1,3-dihydro-2H-1,4-benzodiazepin-2-one] | 0% | neither zolpidem tartrate nor lorazepam was released | 0% | but not lorazepam, was released | 81.3% and 77.2% and 80.1% and 83.2% and 70.2% and 72.1% | more than 70% | –
CN(C)CCOC(c1ccccc1)c1ccccc1 [Diph, 2-(diphenylmethoxy)-N,N-dimethylethanamine] | 93.4% and 89.8% and 98.2% and 98.7% and 96.8% and 97.3% | – | 98.0% and 100% (3×) and 99.9% (2×) | – | 99.9% and 100% (2×) and 99.8% and 99.1% and 99.2% | – | more than 89%
